These are literature values, as cited in US20240050950A1, “GRADIENT-BASED MICROFLUIDIC CIRCUIT, DEVICE, AND METHOD FOR PERFORMING AN ASSAY” (priority 2020, published 2024).

The conditions of this series: cited from earlier work.
The mark [1] stands for this setting: Table 1, antimicrobial agents/drugs.
Where [2] appears, read: Table 3, antifungal drugs and other molecules.

Counter-ions that a name gives are not always drawn. Like-named read-outs stand apart in the source and are kept apart here. Square brackets hold non-standard residues; d marks the D form. Peptide text beside a SMILES is read from it. * marks the point of attachment. dPhe(4-NHCONH2) = NC(=O)Nc1ccc(C[C@@H](N)C(=O)O)cc1; Dihydroorotyl(S) = O=C1C[C@@H](C(=O)*)NC(=O)N1; dPhe(4-Cl) = N[C@H](Cc1ccc(Cl)cc1)C(=O)O; Phe(4-NH2) = Nc1ccc(C[C@H](N)C(=O)O)cc1; d2Nal = N[C@H](Cc1ccc2ccccc2c1)C(=O)O; Lys(iPr) = CC(C)NCCCC[C@H](N)C(=O)O; d3Pal = N[C@H](Cc1cccnc1)C(=O)O

Turning to `C/C=C/[C@H]1O[C@@](O)([C@@H](C)[C@H](O)[C@H](C)[C@H]2OC(=O)/C(OC)=C/C(C)=C/[C@@H](C)[C@@H](O)[C@@H](CC)[C@@H](O)[C@H](C)C/C(C)=C/C=C/[C@@H]2OC)C[C@@H](O[C@H]2C[C@@H](O)[C@H](OC(N)=O)[C@@H](C)O2)[C@@H]1C` [Concanamycin A (Folimycin), Concanamycin A], the Molar volume under setting [1] is listed as 703.1 ± 7.0 cm^3. Regarding `Nc1ncnc2c1ncn2[C@@H]1O[C@H](CO)C[C@H]1O` [Cordycepin (3′-Deoxyadenosine), 3′-Deoxyadenosine], the Molar volume under setting [1] is listed as 130.8 ± 7.0 cm^3.

As for `CO[C@H]1[C@H](OC(=O)c2ccc(C)[nH]2)[C@H](O)[C@@H](Oc2ccc3c(O)c(NC(=O)c4c[nH]c(C(=O)Nc5c(O)c6ccc(O[C@H]7OC(C)(C)[C@@H](OC)[C@H](OC(=O)c8ccc(C)[nH]8)[C@@H]7O)c(C)c6oc5=O)c4C)c(=O)oc3c2C)OC1(C)C` [Coumermycin Al, Coumermycin A1], under setting [1], the Molar volume is 718.6 ± 5.0 cm^3.

As for `C[C@@H](Oc1cc(-c2cnn(C3CCNCC3)c2)cnc1N)c1c(Cl)ccc(F)c1Cl` [Crizotinib (Xalkori), Crizotinib], under “Table 2, anticancer drugs”, the Molar volume is recorded as 305.2 ± 7.0 cm^3. For the compound `Nc1ccn([C@@H]2O[C@H](CO)[C@@H](O)[C@@H]2O)c(=O)n1` [Cytarabine (Tarabine PFS), Cytarabine], the Molar volume (Table 2, anticancer drugs) is given as 128.4 ± 7.0 cm^3. Consider `C=C1[C@@H](C)[C@H]2[C@H](Cc3ccccc3)NC(=O)[C@]23OC(=O)/C=C/[C@H](O)CCC[C@@H](C)C/C=C/[C@H]3[C@@H]1O` [Cytochalasin B (Phomin), Cytochalasin B], for which, under setting [1], the Molar volume is on record as 396.8 ± 5.0 cm^3. Consider `C=C1[C@@H](C)[C@H]2[C@H](Cc3ccccc3)NC(=O)[C@]23[C@H](OC(C)=O)/C=C/[C@@](C)(O)C(=O)[C@@H](C)C/C=C/[C@H]3[C@@H]1O` [Cytochalasin D (Zygosporin A, 1632828), Cytochalasin D], for which the Molar volume under setting [1] is on record as 410.0 ± 5.0 cm^3. Regarding `N[C@@H]1CONC1=O` [D-Cycloserine], the Molar volume under setting [1] was 79.8 ± 3.0 cm^3. On to `CC1(C)S[C@@H]2[C@H](NC(=O)[C@H](NC(=O)N3CCNC3=O)c3ccccc3)C(=O)N2[C@H]1C(=O)O` [D-α-([Imidazolidin-2-on-1-yl]carbonylamino)benzylpenicillin], for which, under setting [1], the Molar volume was 296.6 ± 5.0 cm^3. On to `CC(C)(C)c1nc(-c2cccc(NS(=O)(=O)c3c(F)cccc3F)c2F)c(-c2ccnc(N)n2)s1` [Dabrafenib (Tafinlar), Dabrafenib], for which the Molar volume (Table 2, anticancer drugs) was 359.8 ± 3.0 cm^3.

Take `COc1cc2ncnc(Nc3ccc(F)c(Cl)c3)c2cc1NC(=O)/C=C/CN1CCCCC1` [Dacomitinib (Vizimpro), Dacomitinib]: where the note is “Table 2, anticancer drugs”, the Molar volume is 349.4 ± 3.0 cm^3.

Take `CCCCCCCCCC(=O)N[C@@H](Cc1c[nH]c2ccccc12)C(=O)N[C@H](CC(N)=O)C(=O)N[C@@H](CC(=O)O)C(=O)N[C@@H]1C(=O)NCC(=O)N[C@@H](CCCN)C(=O)N[C@@H](CC(=O)O)C(=O)N[C@H](C)C(=O)N[C@@H](CC(=O)O)C(=O)NCC(=O)N[C@H](CO)C(=O)N[C@@H]([C@H](C)CC(=O)O)C(=O)N[C@@H](CC(=O)c2ccccc2N)C(=O)O[C@@H]1C` [Daptomycin]: the Molar volume under setting [1] is on record as 1110.7 ± 5.0 cm^3.

On to `COc1cccc2c1C(=O)c1c(O)c3c(c(O)c1C2=O)C[C@@](O)(C(C)=O)C[C@@H]3O[C@H]1C[C@H](N)[C@H](O)[C@H](C)O1` [Daunorubicin (Daunomycin), Daunorubicin], for which the Molar volume under setting [1] is recorded as 339.4 ± 5.0 cm^3. Turning to `CC(=O)N[C@H](Cc1ccc2ccccc2c1)C(=O)N[C@H](Cc1ccc(Cl)cc1)C(=O)N[C@H](Cc1cccnc1)C(=O)N[C@@H](CO)C(=O)N[C@@H](Cc1ccc(NC(=O)[C@@H]2CC(=O)NC(=O)N2)cc1)C(=O)N[C@H](Cc1ccc(NC(N)=O)cc1)C(=O)N[C@@H](CC(C)C)C(=O)N[C@@H](CCCCNC(C)C)C(=O)N1CCC[C@H]1C(=O)N[C@H](C)C(N)=O` [Degarelix] (Ac-[d2Nal][dPhe(4-Cl)][d3Pal]S[Phe(4-NH2)](Dihydroorotyl(S))[dPhe(4-NHCONH2)]L[Lys(iPr)]P[dA]-NH2), the Molar volume (Table 2, anticancer drugs) is 1231.3 ± 3.0 cm^3.

Regarding `CN(C)[C@@H]1C(O)=C(C(N)=O)C(=O)[C@@]2(O)C(O)=C3C(=O)c4c(O)ccc(Cl)c4[C@@H](O)[C@H]3C[C@@H]12` [Demeclocycline], the Molar volume under setting [1] is 265.1 ± 5.0 cm^3. `C[C@@H](CN1CC(=O)NC(=O)C1)N1CC(=O)NC(=O)C1` [Dexrazoxane Hydrochloride]: under “Table 2, anticancer drugs”, the Molar volume is 201.2 ± 3.0 cm^3.

On to `Oc1ccc(Cl)cc1Cc1cc(Cl)ccc1O` [Dichlorophene], for which the Molar volume under setting [1] was 189.5 ± 3.0 cm^3. In the case of `Cc1onc(-c2c(Cl)cccc2Cl)c1C(=O)N[C@@H]1C(=O)N2[C@@H]1SC(C)(C)[C@@H]2C(=O)O` [Dicloxacillin], the Molar volume under setting [1] is listed as 290.0 ± 5.0 cm^3. As for `CN1CCN(c2cc3c(cc2F)c(=O)c(C(=O)O)cn3-c2ccc(F)cc2)CC1` [Difloxacin], under setting [1], the Molar volume is listed as 283.2 ± 3.0 cm^3. As to `CN[C@@H]1[C@H](O[C@H]2[C@H](O[C@H]3[C@H](O)[C@@H](O)[C@H](NC(=N)N)[C@@H](O)[C@@H]3NC(=N)N)O[C@@H](C)[C@]2(O)CO)O[C@@H](CO)[C@H](O)[C@H]1O` [Dihydrostreptomycin], under setting [1], the Molar volume is recorded as 293.4 ± 7.0 cm^3.

For the compound `Cc1ncc([N+](=O)[O-])n1C` [Dimetridazole], the Molar volume under setting [1] is on record as 103.4 ± 7.0 cm^3.

Take `CC(=O)O[C@@]12CO[C@@H]1C[C@H](O)[C@@]1(C)C(=O)[C@H](O)C3=C(C)[C@@H](OC(=O)[C@H](O)[C@@H](NC(=O)OC(C)(C)C)c4ccccc4)C[C@@](O)([C@@H](OC(=O)c4ccccc4)[C@H]21)C3(C)C` [Docetaxel (Taxotere), Docetaxel]: where the note is “Table 2, anticancer drugs”, the Molar volume is 585.7 ± 5.0 cm^3.

Take `COc1cccc2c1C(=O)c1c(O)c3c(c(O)c1C2=O)C[C@@](O)(C(=O)CO)C[C@@H]3O[C@H]1C[C@H](N)[C@H](O)[C@H](C)O1` [Doxorubicin]: the Molar volume is 336.6 ± 5.0 cm^3 under setting [1] and 336.6 ± 5.0 cm^3 (Table 2, anticancer drugs). `CC(C)(O)CNc1nc(Nc2ccnc(C(F)(F)F)c2)nc(-c2cccc(C(F)(F)F)n2)n1` [Enasidenib Mesylate]: the Molar volume (Table 2, anticancer drugs) is reported as 320.4 ± 3.0 cm^3. Consider `CCN1CCN(c2cc3c(cc2F)c(=O)c(C(=O)O)cn3C2CC2)CC1` [Enrofloxacin (Baytril), Enrofloxacin], for which, under setting [1], the Molar volume is 259.3 ± 3.0 cm^3. Regarding `CNC(=O)c1ccc(N2C(=S)N(c3ccc(C#N)c(C(F)(F)F)c3)C(=O)C2(C)C)cc1F` [Enzalutamide (Xtandi), Enzalutamide], the Molar volume (Table 2, anticancer drugs) was 310.0 ± 5.0 cm^3.

Consider `C=C1C[C@@H]2CC[C@@]34C[C@H]5O[C@H]6[C@@H](O3)[C@H]3O[C@H](CC[C@@H]3O[C@H]6[C@H]5O4)CC(=O)C[C@@H]3[C@@H](OC)[C@@H](C[C@H](O)CN)O[C@H]3C[C@H]3O[C@@H](CC[C@@H]1O2)C[C@@H](C)C3=C` [Eribulin Mesylate], for which the Molar volume (Table 2, anticancer drugs) is given as 563.2 ± 5.0 cm^3. With `C#Cc1cccc(Nc2ncnc3cc(OCCOC)c(OCCOC)cc23)c1` [Erlotinib Hydrochloride (Tarceva), Erlotinib Hydrochloride], the Molar volume (Table 2, anticancer drugs) was 315.4 ± 5.0 cm^3.

As for `CC[C@@H](CO)NCCN[C@@H](CC)CO` [Ethambutol ((+)-S,S-Ethambutol), Ethambutol], under setting [1], the Molar volume is 207.0 ± 3.0 cm^3.

For `COc1cc([C@@H]2c3cc4c(cc3[C@@H](O[C@@H]3O[C@@H]5CO[C@@H](C)O[C@H]5[C@H](O)[C@H]3O)[C@H]3COC(=O)[C@H]23)OCO4)cc(OC)c1OP(=O)(O)O` [Etopophos (Etoposide Phosphate), Etoposide Phosphate], the Molar volume (Table 2, anticancer drugs) is 406.7 ± 5.0 cm^3.

Consider `COc1cc([C@@H]2c3cc4c(cc3[C@@H](O[C@@H]3O[C@@H]5CO[C@@H](C)O[C@H]5[C@H](O)[C@H]3O)[C@H]3COC(=O)[C@H]23)OCO4)cc(OC)c1O` [Etoposide], for which the Molar volume under setting [1] is given as 378.5 ± 5.0 cm^3. With `CN(C)CCOc1ccc(/C(=C(/CCCl)c2ccccc2)c2ccccc2)cc1` [Fareston (Toremifene), Toremifene], the Molar volume (Table 2, anticancer drugs) is on record as 367.6 ± 3.0 cm^3. As to `C[C@]12CC[C@@H]3c4ccc(O)cc4C[C@@H](CCCCCCCCC[S+]([O-])CCCC(F)(F)C(F)(F)F)[C@H]3[C@@H]1CC[C@@H]2O` (stereo partly shown) [Faslodex (Fulvestrant), Fulvestrant], the Molar volume (Table 2, anticancer drugs) is 505.1 ± 3.0 cm^3.

As for `N#Cc1ccc(C(c2ccc(C#N)cc2)n2cncn2)cc1` [Femara (Letrozole), Letrozole], the Molar volume (Table 2, anticancer drugs) is recorded as 234.5 ± 7.0 cm^3. As to `Cc1ccc(C(=O)N2CCN(c3ccc([N+](=O)[O-])cc3)CC2)cc1Cl` [Filastatin], the Molar volume under setting [2] is given as 269.8 ± 3.0 cm^3.

With `CCCCC[C@@H](O)[C@H]1C(=O)O[C@H](C)[C@@H](O)/C=C/C=C/C=C/C=C/C=C(\C)[C@@H](O)C[C@H](O)C[C@H](O)C[C@H](O)C[C@H](O)C[C@H](O)C[C@@H]1O` [Filipin], under setting [2], the Molar volume is 563.7 ± 3.0 cm^3. In the case of `CS(=O)(=O)c1ccc([C@@H](O)[C@@H](CF)NC(=O)C(Cl)Cl)cc1` [Florfenicol (Aquafen, Nuflor), Florfenicol], under setting [1], the Molar volume is 246.7 ± 3.0 cm^3. With `COC(=O)Nc1nc2cc(C(=O)c3ccc(F)cc3)ccc2[nH]1` [Flubendazol (Flumoxanal), Flubendazol], under setting [1], the Molar volume is 216.8 ± 3.0 cm^3. Consider `OC(Cn1cncn1)(Cn1cncn1)c1ccc(F)cc1F` [Fluconazole], for which the Molar volume under setting [1] is given as 205.2 ± 7.0 cm^3 and the Molar volume under setting [2] was 205.2 cm^3. As for `CC(C(=O)O)c1ccc(-c2ccccc2)c(F)c1` (stereo not shown) [Flurbiprofen], under setting [1], the Molar volume is on record as 203.6 ± 3.0 cm^3. On to `C#CCC(Cc1cnc2nc(N)nc(N)c2n1)c1ccc(C(=O)N[C@@H](CCC(=O)O)C(=O)O)cc1` (stereo partly shown) [Folotyn (Pralatrexate), Pralatrexate], for which the Molar volume (Table 2, anticancer drugs) is reported as 324.5 ± 3.0 cm^3. Regarding `Nc1ncnc2c([C@@H]3O[C@H](CO)[C@@H](O)[C@H]3O)[nH]nc12` [Formycin A], the Molar volume under setting [1] is 128.1 ± 7.0 cm^3. As to `CO[C@@H]1[C@H](OC(=O)/C=C/C=C/C=C/C=C/C(=O)O)CC[C@]2(CO2)[C@H]1[C@@]1(C)O[C@@H]1CC=C(C)C` [Fumagillin], under setting [1], the Molar volume is recorded as 383.2 ± 5.0 cm^3. As for `CCCCc1ccc(C(=O)O)nc1` [Fusaric acid (5-Butylpicolinic acid), 5-Butylpicolinic acid], the Molar volume under setting [1] is reported as 161.0 ± 3.0 cm^3.
